These results are taken from patent US6995154B2, “Heterocyclic topoisomerase poisons” (Rutgers, The State University of New Jersey, priority 1997, dated 2006).

Molecules are shown by their SMILES. A value given as a limit tells only on which side of the number the result lay.

The target of series [1] is T1, human topoisomerase I (Homo sapiens, UniProt P11387).
T1 construct: unnamed fusion partner (recombinant fusion protein); made in house
T1 sequence (P11387 1-765): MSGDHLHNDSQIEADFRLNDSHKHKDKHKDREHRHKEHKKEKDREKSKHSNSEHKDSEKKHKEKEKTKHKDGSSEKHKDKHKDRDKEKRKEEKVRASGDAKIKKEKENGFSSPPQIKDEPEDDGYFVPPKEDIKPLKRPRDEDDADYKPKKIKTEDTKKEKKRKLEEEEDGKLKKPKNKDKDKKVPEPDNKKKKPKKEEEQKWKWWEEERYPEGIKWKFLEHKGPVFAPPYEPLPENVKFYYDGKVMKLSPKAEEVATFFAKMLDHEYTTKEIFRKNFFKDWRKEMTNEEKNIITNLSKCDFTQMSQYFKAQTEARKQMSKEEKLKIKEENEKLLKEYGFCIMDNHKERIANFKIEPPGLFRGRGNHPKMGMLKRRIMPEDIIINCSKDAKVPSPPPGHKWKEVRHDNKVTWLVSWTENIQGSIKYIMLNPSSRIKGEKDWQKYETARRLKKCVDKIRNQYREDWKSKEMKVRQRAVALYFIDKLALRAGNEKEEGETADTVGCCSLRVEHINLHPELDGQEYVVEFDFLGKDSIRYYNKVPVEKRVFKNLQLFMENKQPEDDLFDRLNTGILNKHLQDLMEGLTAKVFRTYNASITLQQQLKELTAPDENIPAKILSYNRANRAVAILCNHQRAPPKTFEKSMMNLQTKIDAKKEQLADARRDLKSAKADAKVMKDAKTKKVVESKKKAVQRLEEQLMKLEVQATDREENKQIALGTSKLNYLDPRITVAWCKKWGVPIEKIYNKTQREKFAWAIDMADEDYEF
The series is described as follows: Test A. Topoisomerase I Cleavage Assay. It is filed as biochemical. To be noted: concentration relative to compound 5 (arbitrarily assumed as 1) producing the same cleavage on plasmid DNA with human topoisomerase I. On the procedure:
Test A. Topoisomerase I Cleavage Assay
Representative compounds of the invention were evaluated in a cleavage assay using recombinant topoisomerases I. This assay was preformed as described by B. Gatto et al. Cancer Res., 1996, 56, 2795–2800. Human topoisomerase I was isolated as a recombinant fusion protein using a T7 expression system. Plasmid YEpG was purified by the alkali lysis method followed by phenol deproteination and CsCl/ethidium isopycnic centrifugation as described by Maniatis, T.; Fritsch, E. F.; Sambrook, J. Molecular Cloning, a Laboratory Manual; Cold Spring Harbor Laboratory: Cold Spring Harbor, N.Y. 1982; pp 149–185. The end-labeling of the plasmid was accomplished by digestion with a restriction enzyme followed by end-filling with Klenow polymerase as previously described by Liu, L. F.; Rowe, T. C.; Yang, L.; Tewey, K. M.; Chen, G. L. “Cleavage of DNA by mammalian topoisomerase II,” J. Biol. Chem. 1983, 258, 15365. IC50 values were calculated after 4 days of continuous drug exposure. Topoisomerase I cleavage values are reported as REC, Relative Effective Concentration (i.e., concentrations relative to compound 5, whose value is arbitrarily assumed as 1) that is able to produce the same cleavage on the plasmid DNA in the presence of human topoisomerase I.

Series [2] has as its system RPMI 8402 cells. Put plainly: Test B. MTT cytotoxicity assay (MTA), RPMI 8402. The class given is cell-based. To be noted: RPMI 8402 human lymphoblast; continuous drug exposure, MTT at end of fourth day. As to the method:
(§1) Test B. Cytotoxicity Assay
(§2) Cytotoxicity was determined using the MTT-microtiter plate tetrazolinium cytotoxicity assay (MTA) (See Chen A. Y. et al. Cancer Res. 1993, 53, 1332; Mosmann, T. J., J. Immunol. Methods 1983, 65, 55; and Carmichael, J. et al. Cancer Res. 1987, 47, 936). The human lymphoblast RPMI 8402 and its camptothecin-resistant variant cell line, CPT-K5 were provided by Dr. Toshiwo Andoh (Aichi Cancer Center Research Institute, Nagoya, Japan) (see Andoh, T.; Okada, K. “Drug resistance mechanisms of topoisomerase I drugs,” Adv. in Pharmacology 1994, 29B, 93. The cytotoxicity assay was performed using 96-well microtiter plates. Cells were grown in suspension at 37° C. in 5% CO2 and maintained by regular passage in RPMI medium supplemented with 10% heat-inactivated fetal bovine serum, L-glutamine (2 mM), penicillin (100 U/mL), and streptomycin (0.1 mg/mL). For determination of IC50, cells were exposed continuously with varying concentrations of drug and MTT assays were performed at the end of the fourth day.

In series [3] the test system is CPT-K5 (camptothecin-resistant variant of RPMI 8402). Put plainly: Test B. MTT cytotoxicity assay (MTA), CPT-K5. To be noted: continuous drug exposure, MTT at end of fourth day. It is filed as cell-based, human. On the procedure:
as §1, §2

For `c1ccc(-c2ccc3[nH]c(-c4ccc5[nH]c(-c6ccc7[nH]nnc7c6)nc5c4)nc3c2)cc1` [Compound 2, 5-Phenyl-2′-(benzotriazol-5-yl)-bibenzimidazole], the “Topo I-mediated DNA cleavage (REC, Relative Effective Concentration)” value in series [1] came to 1. In addition, the IC50 in series [2] and in series [3] was 0.47 µM throughout.
Regarding `c1ccc(-c2ccc3[nH]c(-c4ccc5[nH]c(-c6ccc7nccnc7c6)nc5c4)nc3c2)cc1` [Compound 3, 5-Phenyl-2′-(quinoxaline-6-yl)-bibenzimidazole], the “Topo I-mediated DNA cleavage (REC, Relative Effective Concentration)” value in series [1] amounted to 1. Further, the IC50 (usually the midpoint of a concentration-inhibition curve) in series [2] came to 2.3 µM; in series [3], 21 µM.
Consider `O=c1[nH]c2ccc(-c3nc4cc(-c5nc6cc(-c7ccccc7)ccc6[nH]5)ccc4[nH]3)cc2[nH]c1=O` [Compound 4, 5-Phenyl-2′-(quinoxalinedione-6-yl)bibenzimidazole], for which the concentration for half-maximal inhibition (IC50) was 20 µM in series [2] and over 20 µM in series [3].
